Reference: ChEMBL document CHEMBL2331192, “Naphthalenyl derivatives for hitting P-gp/MRP1/BCRP transporters” (Bioorg Med Chem, 2013)

How the values were obtained:
[1] = target: T1, ATP-dependent translocase ABCB1 (Homo sapiens, UniProt P08183); experiment: Activity at MDR1 (unknown origin) expressed in MDCK cells assessed as ATPase activity after 2 hrs by ATPlite assay; format: cell-based
[2] = Apparent permeability across human Caco2 cells after 2 hrs; format: ADME, cell-based; details: Caco-2
[3] = target: T1, ATP-dependent translocase ABCB1; experiment: Activity at MDR1 (unknown origin) expressed in MDCK cells assessed as interference with calcein-AM efflux incubated for 30 mins prior to calcein-Am addition measured after 30 mins by fluorometric analysis; format: cell-based
[4] = target: Multidrug resistance-associated protein 1 (Homo sapiens, UniProt P33527); experiment: Activity at MRP1 (unknown origin) expressed in MDCK cells assessed as interference calcein-AM efflux incubated for 30 mins prior to calcein-Am addition measured after 30 mins by fluorometric analysis; format: cell-based
[5] = target: T2, Broad substrate specificity ATP-binding cassette transporter ABCG2 (Homo sapiens, UniProt Q9UNQ0); experiment: Activity at BCRP (unknown origin) expressed in MDCK cells assessed as interference with rhodamine-123 efflux at 200 nM; format: cell-based; details: 0.2 µM
T2 sequence (Q9UNQ0 whole entry): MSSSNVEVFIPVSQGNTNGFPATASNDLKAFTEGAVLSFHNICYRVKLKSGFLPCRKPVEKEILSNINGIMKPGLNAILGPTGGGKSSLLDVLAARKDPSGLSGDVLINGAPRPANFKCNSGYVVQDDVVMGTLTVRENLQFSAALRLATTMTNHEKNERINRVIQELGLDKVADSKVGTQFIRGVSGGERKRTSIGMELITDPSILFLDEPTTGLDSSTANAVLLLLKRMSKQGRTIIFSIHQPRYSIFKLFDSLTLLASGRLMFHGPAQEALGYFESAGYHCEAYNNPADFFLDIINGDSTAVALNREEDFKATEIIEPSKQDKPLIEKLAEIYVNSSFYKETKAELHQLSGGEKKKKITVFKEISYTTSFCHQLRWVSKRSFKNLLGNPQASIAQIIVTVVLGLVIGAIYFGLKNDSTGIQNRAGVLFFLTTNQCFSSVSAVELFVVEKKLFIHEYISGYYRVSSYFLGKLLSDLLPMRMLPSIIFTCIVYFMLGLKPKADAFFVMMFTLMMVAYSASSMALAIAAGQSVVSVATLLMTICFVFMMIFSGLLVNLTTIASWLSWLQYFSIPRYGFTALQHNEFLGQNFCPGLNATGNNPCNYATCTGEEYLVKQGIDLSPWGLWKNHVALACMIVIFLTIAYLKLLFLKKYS

[6] = target: T2, Broad substrate specificity ATP-binding cassette transporter ABCG2; experiment: Activity at BCRP (unknown origin) expressed in MDCK cells assessed as interference with rhodamine-123 efflux; format: cell-based

Sequence of Multidrug resistance-associated protein 1 (P33527 whole entry): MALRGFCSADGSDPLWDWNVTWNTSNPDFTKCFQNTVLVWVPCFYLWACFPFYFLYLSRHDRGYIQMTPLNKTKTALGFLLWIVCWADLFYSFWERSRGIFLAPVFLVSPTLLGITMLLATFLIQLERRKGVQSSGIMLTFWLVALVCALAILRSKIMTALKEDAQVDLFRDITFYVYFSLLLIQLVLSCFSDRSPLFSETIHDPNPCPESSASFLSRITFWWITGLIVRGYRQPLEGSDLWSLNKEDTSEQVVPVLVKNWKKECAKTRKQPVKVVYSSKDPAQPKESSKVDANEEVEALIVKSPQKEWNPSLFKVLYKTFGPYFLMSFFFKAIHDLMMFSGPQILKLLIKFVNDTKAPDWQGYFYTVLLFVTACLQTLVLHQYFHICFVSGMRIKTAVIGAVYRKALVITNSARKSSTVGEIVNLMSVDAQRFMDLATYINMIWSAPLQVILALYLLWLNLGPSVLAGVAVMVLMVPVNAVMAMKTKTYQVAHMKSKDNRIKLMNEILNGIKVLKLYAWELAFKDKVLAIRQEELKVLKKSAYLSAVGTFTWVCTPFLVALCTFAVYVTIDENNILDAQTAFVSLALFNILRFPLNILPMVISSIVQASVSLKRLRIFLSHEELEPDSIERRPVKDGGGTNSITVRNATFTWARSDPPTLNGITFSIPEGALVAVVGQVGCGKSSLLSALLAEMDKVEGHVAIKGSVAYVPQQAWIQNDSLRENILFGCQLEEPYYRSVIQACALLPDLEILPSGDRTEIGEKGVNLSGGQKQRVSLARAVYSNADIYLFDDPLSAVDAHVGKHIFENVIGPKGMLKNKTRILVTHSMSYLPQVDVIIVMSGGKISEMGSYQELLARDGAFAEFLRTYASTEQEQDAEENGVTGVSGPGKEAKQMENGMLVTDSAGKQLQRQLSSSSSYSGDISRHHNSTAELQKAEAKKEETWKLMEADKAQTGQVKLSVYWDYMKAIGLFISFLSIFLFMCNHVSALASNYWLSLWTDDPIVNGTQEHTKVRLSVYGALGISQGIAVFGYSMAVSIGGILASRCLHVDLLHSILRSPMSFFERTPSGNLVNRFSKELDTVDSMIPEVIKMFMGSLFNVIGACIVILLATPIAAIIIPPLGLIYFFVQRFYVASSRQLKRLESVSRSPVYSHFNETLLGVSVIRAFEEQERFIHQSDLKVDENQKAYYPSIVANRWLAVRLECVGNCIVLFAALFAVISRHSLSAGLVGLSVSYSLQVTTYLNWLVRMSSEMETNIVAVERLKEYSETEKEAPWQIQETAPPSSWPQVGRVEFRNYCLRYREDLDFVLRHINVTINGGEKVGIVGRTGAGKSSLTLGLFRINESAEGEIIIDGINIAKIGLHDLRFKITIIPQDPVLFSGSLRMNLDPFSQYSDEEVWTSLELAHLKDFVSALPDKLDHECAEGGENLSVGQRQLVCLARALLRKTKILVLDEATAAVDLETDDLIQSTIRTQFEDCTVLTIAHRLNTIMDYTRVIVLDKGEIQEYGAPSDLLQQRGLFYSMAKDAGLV
T1 sequence (P08183 whole entry): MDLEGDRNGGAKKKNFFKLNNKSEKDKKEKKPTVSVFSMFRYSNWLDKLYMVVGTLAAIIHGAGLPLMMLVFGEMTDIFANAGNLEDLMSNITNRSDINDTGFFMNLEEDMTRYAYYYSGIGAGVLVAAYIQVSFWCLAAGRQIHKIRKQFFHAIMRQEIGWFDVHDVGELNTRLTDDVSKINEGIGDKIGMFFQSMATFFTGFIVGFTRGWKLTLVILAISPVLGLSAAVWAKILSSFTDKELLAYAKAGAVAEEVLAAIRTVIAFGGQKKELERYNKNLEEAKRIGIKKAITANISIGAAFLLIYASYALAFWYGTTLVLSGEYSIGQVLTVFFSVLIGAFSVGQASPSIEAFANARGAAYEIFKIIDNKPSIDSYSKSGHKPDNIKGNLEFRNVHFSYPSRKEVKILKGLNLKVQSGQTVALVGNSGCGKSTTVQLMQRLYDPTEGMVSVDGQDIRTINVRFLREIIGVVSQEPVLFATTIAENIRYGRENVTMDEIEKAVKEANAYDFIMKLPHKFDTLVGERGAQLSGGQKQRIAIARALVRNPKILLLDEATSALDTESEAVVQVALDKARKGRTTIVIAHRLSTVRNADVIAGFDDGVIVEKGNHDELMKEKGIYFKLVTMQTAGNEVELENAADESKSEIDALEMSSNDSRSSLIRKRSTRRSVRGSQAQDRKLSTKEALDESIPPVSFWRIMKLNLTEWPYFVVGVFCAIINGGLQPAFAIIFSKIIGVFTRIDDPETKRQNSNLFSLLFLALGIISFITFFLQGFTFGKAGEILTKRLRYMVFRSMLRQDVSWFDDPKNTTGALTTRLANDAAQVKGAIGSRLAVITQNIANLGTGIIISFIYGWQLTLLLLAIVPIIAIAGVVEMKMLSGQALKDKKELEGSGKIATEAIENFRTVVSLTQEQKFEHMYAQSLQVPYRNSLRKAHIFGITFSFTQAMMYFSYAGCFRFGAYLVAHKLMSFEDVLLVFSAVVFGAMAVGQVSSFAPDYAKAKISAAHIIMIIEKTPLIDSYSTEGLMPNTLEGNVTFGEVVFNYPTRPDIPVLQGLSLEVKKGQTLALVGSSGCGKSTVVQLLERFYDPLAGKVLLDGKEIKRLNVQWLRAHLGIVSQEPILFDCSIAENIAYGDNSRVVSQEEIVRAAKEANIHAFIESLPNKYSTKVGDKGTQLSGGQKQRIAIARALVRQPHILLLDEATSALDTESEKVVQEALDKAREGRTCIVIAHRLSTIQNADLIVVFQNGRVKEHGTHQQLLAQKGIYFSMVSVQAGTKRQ

## COc1cc2c(cc1OC)CN(Cc1coc(-c3ccc4cc(F)ccc4c3)n1)CC2
[1]
  Activity: Not Active
[2]
  Papp at 2 h: 0.082 ×10⁻⁶ cm/s

## COc1cc2c(cc1OC)CN(Cc1coc(-c3ccc4cc(Br)ccc4c3)n1)CC2
[1]
  Activity: Not Active
[3]
  EC50: 1.8 µM
[2]
  Papp at 2 h: 0.32 ×10⁻⁶ cm/s
[4]
  EC50: > 100 µM

## COc1cc2c(cc1OC)CN(CCCC1CCCc3c(OC)cccc31)CC2 (centres undefined)
[4]
  EC50: > 100 µM

## COc1cc2c(cc1OC)CN(Cc1csc(-c3ccc4cc(F)ccc4c3)n1)CC2
[1]
  Activity: Not Active
[3]
  EC50: 4.8 µM
[2]
  Papp at 2 h: 0.95 ×10⁻⁶ cm/s
[4]
  EC50: 8.8 µM

## COc1cc2c(cc1OC)CN(Cc1csc(-c3ccc4cc(Br)ccc4c3)n1)CC2
[1]
  Activity: Active
[5]
  Activity: Not Active
[2]
  Papp at 2 h: 0.59 ×10⁻⁶ cm/s

## COc1ccc2cc(-c3ccc(CN4CCc5cc(OC)c(OC)cc5C4)o3)ccc2c1
[1]
  Activity: Not Active
[3]
  EC50: 2.9 µM
[2]
  Papp at 2 h: 0.408 ×10⁻⁶ cm/s
[4]
  EC50: > 100 µM

## COc1cc2c(cc1OC)CN(Cc1csc(-c3ccc4ccccc4c3)n1)CC2
[1]
  Activity: Not Active
[3]
  EC50: 3.5 µM
[2]
  Papp at 2 h: 2.37 ×10⁻⁶ cm/s
[4]
  EC50: 3.2 µM

## COc1cc2c(cc1OC)CN(Cc1coc(-c3ccc4cc(O)ccc4c3)n1)CC2
[1]
  Activity: Not Active
[2]
  Papp at 2 h: 0.157 ×10⁻⁶ cm/s

## COc1cc2c(cc1OC)CN(Cc1ccc(-c3ccc(O)cc3)cc1)CC2
[3]
  EC50: 0.69 µM
[4]
  EC50: 9.3 µM
[6]
  EC50: 73 µM

## COc1cc2c(cc1OC)CN(Cc1ccc(-c3ccc4ccccc4c3)o1)CC2
[1]
  Activity: Not Active
[3]
  EC50: 7.1 µM
[2]
  Papp at 2 h: 0.33 ×10⁻⁶ cm/s
[4]
  EC50: > 100 µM

## COc1cc2c(cc1OC)CN(CC/C=C1\CCCc3c(OC)cccc31)CC2
[3]
  EC50: 1.5 µM
[4]
  EC50: 2.8 µM

## COc1cc2c(cc1OC)CN(Cc1coc(-c3ccc4ccccc4c3)n1)CC2
[1]
  Activity: Not Active
[3]
  EC50: 2.3 µM
[2]
  Papp at 2 h: 0.038 ×10⁻⁶ cm/s

## COc1ccc2cc(-c3nc(CN4CCc5cc(OC)c(OC)cc5C4)co3)ccc2c1
[1]
  Activity: Active
[3]
  EC50: 0.6 µM
[5]
  Activity: Not Active
[2]
  Papp at 2 h: 0.38 ×10⁻⁶ cm/s
[4]
  EC50: 14.7 µM

## COc1ccc2cc(-c3nc(CN4CCc5cc(OC)c(OC)cc5C4)cs3)ccc2c1
[1]
  Activity: Active
[5]
  Activity: Not Active
[2]
  Papp at 2 h: 0.6 ×10⁻⁶ cm/s
